Measured values reported in patent US20090227503A1, “PARATHYROID HORMONE TREATMENT FOR ENHANCED ALLOGRAFT AND TISSUE-ENGINEERED RECONSTRUCTION OF BONE DEFECTS” (UNIVERSITY OF ROCHESTER, priority 2008, published 2009).

How the values were obtained:
femoral allograft [1] = assay: Mouse femoral allograft, micro-CT of callus (Example 1); type: in vivo, C57B1/6 mice
Method: Femoral allograft surgeries were performed on C57B1/6 mice as previously described. Briefly, a 4 mm mid-diaphyseal segment was removed by osteotomizing the femur and a processed allograft was implanted and secured in place with a stainless steel intramedullary (IM) pin. After 1 week, 8 mice were given daily subcutaneously injections of 0.4 mg/kg PTH (1-34) (Forteo, Eli Lilly and Company, Indianapolis, Ind.) while 5 mice with grafts were given the same volume of saline daily, serving as controls. Animals were sacrificed 6 weeks after surgery, the grafted femurs were carefully dissected and cleaned without disrupting the callus, and the IM pin was carefully removed. The femurs were then stored frozen at −80° C. until evaluation. Specimens were scanned at 10.5 micron isotropic resolution using a Scanco VivaCT 40 (Scanco Medical AG, Bassersdorf, Switzerland). Callus bone volume adjacent to the graft was manually segmented from all axial slices that contained grafted bone. The mineralized callus volume, callus bone mineral density (BMD) and total mineral content (BMC) were determined.

femoral allograft [2] = assay: Mouse femoral allograft, torsion testing of grafted femurs (Example 1); type: in vivo, C57B1/6 mice
Method: Femoral allograft surgeries were performed on C57B1/6 mice as previously described. Briefly, a 4 mm mid-diaphyseal segment was removed by osteotomizing the femur and a processed allograft was implanted and secured in place with a stainless steel intramedullary (IM) pin. After 1 week, 8 mice were given daily subcutaneously injections of 0.4 mg/kg PTH (1-34) (Forteo, Eli Lilly and Company, Indianapolis, Ind.) while 5 mice with grafts were given the same volume of saline daily, serving as controls. Animals were sacrificed 6 weeks after surgery, the grafted femurs were carefully dissected and cleaned without disrupting the callus, and the IM pin was carefully removed. The femurs were then stored frozen at −80° C. until evaluation. After imaging, the ends of the femurs were cemented into 6.35 mm square aluminum tubes using PMMA in a custom jig to ensure axial alignment and maintain a gage length of 7.3±0.8 mm. Samples were then mounted on an EnduraTec TestBench™ system with a 200 N·mm torque cell (Bose Corp., Minnetonka, Minn.) and tested in torsion at a rate of […] until failure to determine the torsional stiffness, ultimate torque, ultimate rotation, and strain energy to failure. Mode of Failure was determined by x-ray after testing. As described previously (Reynolds D G, et al; J. Biomech. 2007; E-pub May 22) the mode of failure can be categorized by location of the failure. “Pre-union” failures occur at the graft-host junction resulting in an intact graft that simply pulled out from the callus. “Early union” failures occur near the graft-host junction, but involve partial fragmentation of the graft or host bone.

[3] = tested on: intact contralateral femurs; assay: Micro-CT of intact contralateral femurs (Example 4); type: in vivo, mice; conditions: 6 weeks
grafted femurs [4] = assay: Torsion testing of grafted femurs (Example 4); type: in vivo, mice
Method: Four-mm long bone allografts were harvested from donor mice, and were processed and implanted into intecalary defects 195 in the femur of other mice and secured in place using a stainless steel intramedullary pin 190, as shown in FIG. 13. One week after surgery, daily injections of 40 μg/kg hrPTH (1-34) (Lilly, Inc., Indianapolis, Ind.) were initiated in half of the mice, while the others received injections of saline control. Weekly x-rays were taken to monitor progression (Faxitron X-Ray LLC, Wheeling, Ill.).
One cohort of the study groups used 14 mice from each treatment (PTH and control) for imaging and mechanical material testing and were sacrificed 6 weeks after surgery. Each femur was harvested by disarticulating the hip and knee and removing the intramedullary stainless-steel pin. Specimens were moistened with saline and frozen at −20° C. until thawed for micro-CT imaging and torsion testing. Specimens were scanned at […] isotropic resolution using the Scanco VivaCT 40 (Scanco Medical AG, Bassersdorf, Switzerland). From these 3D images, the graft and callus bone volumes (BVGraft, BVCallus) were measured by manual segmentation, followed by standardized thresholding at a grayscale corresponding to 750 mgHA/cm^3. The cross-sectional polar moment of inertias (PMI) were computed for each slice throughout the grafted region and the maximum, minimum and average PMI (PMIMax, PMIMin, PMIAve) were investigated to determine their contribution to the biomechanics of the grafted femurs.
The Union Ratio was also calculated. The Union Ratio measures the graft surface area upon which mineralized callus has formed. If the voxels adjacent to the graft surface are boney callus, the area of that region of the graft is measured and normalized to the total graft surface area. Imaging data (not shown) indicated the bare surface of the graft in blue, with regions of union to the callus depicted as red. Each half (proximal and distal) of the graft was evaluated separately and the lesser ratio of union area to total graft surface area was given as the Union Ratio for that specimen. Callus formation that bridged from host-to-host over the graft was determined by evaluating serial axial cross sections from micro-CT images and given a binary result. These samples were then mechanically tested in torsion. Yield torque (TYield), ultimate torque (TUlt), torsional rigidity (TR), toughness (or work to failure) and the twist at ultimate torque were determined for each specimen. Finally, the mode of failure for each specimen was determined using an x-ray image analysis (not shown).

grafted femurs [5] = assay: Histology of grafted femurs (Example 4); type: in vivo, mice
Method: A second cohort of 16 animals underwent the same surgery with sacrifice of 8 animals at 4 weeks and 8 animals at 6 weeks post-surgery to evaluate the degree of vascularization of the graft and callus region using vascular profusion as described previously (Duvall 2004). Half of the animals were treated with PTH, and the other half with saline. After micro-CT imaging for vascular analysis, specimens were processed for histology. Mid-sagittal sections were stained with alcian blue, hematoxylin, eosin and orange G. Micro-CT images were manually resliced using NIH ImageJ software in the same plane as the histology sections to compare the imaging modalities (data not shown).

[6] = 0.4 mg/kg PTH (1-34) s.c. daily from week 1, 6 weeks after surgery, Mean (Standard Deviation)
[7] = vs saline, 6 weeks after surgery
[8] = 0.4 mg/kg PTH (1-34) s.c. daily, 6 weeks after surgery, Mean (Standard Deviation)
[9] = of 8 PTH treated mice, all 5 controls pre-union
[10] = PTH contralateral femur, mean, N = 8
[11] = PTH Graft, 6 weeks after implantation, mean

SMILES: CC[C@H](C)[C@H](NC(=O)[C@H](CCC(=O)O)NC(=O)[C@H](CO)NC(=O)[C@@H](NC(=O)[C@@H](N)CO)C(C)C)C(=O)N[C@@H](CCC(N)=O)C(=O)N[C@@H](CC(C)C)C(=O)N[C@@H](CCSC)C(=O)N[C@@H](Cc1cnc[nH]1)C(=O)N[C@@H](CC(N)=O)C(=O)N[C@@H](CC(C)C)C(=O)NCC(=O)N[C@@H](CCCCN)C(=O)N[C@@H](Cc1cnc[nH]1)C(=O)N[C@@H](CC(C)C)C(=O)N[C@@H](CC(N)=O)C(=O)N[C@@H](CO)C(=O)N[C@@H](CCSC)C(=O)N[C@@H](CCC(=O)O)C(=O)N[C@@H](CCCN=C(N)N)C(=O)N[C@H](C(=O)N[C@@H](CCC(=O)O)C(=O)N[C@@H](Cc1c[nH]c2ccccc12)C(=O)N[C@@H](CC(C)C)C(=O)N[C@@H](CCCN=C(N)N)C(=O)N[C@@H](CCCCN)C(=O)N[C@@H](CCCCN)C(=O)N[C@@H](CC(C)C)C(=O)N[C@@H](CCC(N)=O)C(=O)N[C@@H](CC(=O)O)C(=O)N[C@H](C(=O)N[C@@H](Cc1cnc[nH]1)C(=O)N[C@@H](CC(N)=O)C(=O)N[C@@H](Cc1ccccc1)C(=O)O)C(C)C)C(C)C [PTH, PTH (1-34)]
- Callus BMC (femoral allograft [1]; [6]): 2.77 (0.53) mg HA
- Callus BMD (femoral allograft [1]; [6]): 665 (17) mg HA/cm^3
- Callus Bone Volume (femoral allograft [1]; [6]): 4.17 (0.80) mm^3
- samples with callus bridging the graft from host to host (femoral allograft [1]; 6 weeks after surgery, saline 20%): 63%
- increase in callus bone volume (femoral allograft [1]; [7]): 1.9 fold
- net increase in total callus mineral content (femoral allograft [1]; [7]): 60%
- reduction in callus BMD (femoral allograft [1]; [7]): 13%
- Energy to failure (femoral allograft [2]; [8]): 0.25 (0.31)
- Normalized Rotation at TUlt (femoral allograft [2]; [8]): 0.97 (0.23) deg/mm gage length
- Ultimate Torque (femoral allograft [2]; [8]): 13.5 (4.7) N*mm
- normalized rotation at peak torque (femoral allograft [2]; 6 weeks): 0.97 degrees per mm of gage length
- stiffness as share of normal unoperated femur properties (femoral allograft [2]; after 6 weeks of healing): ~120%
- strength as share of normal unoperated femur properties (femoral allograft [2]; after 6 weeks of healing): ~67%
- specimens failing in "early union" mode (femoral allograft [2]; [9]): 2
- specimens with "mature union" failure (femoral allograft [2]; [9]): 1
- enhancement in ultimate torque (femoral allograft [2]; vs saline, 6 weeks): 1.65 fold
- stiffness relative to saline (times stiffer) (femoral allograft [2]; vs saline, 6 weeks): 3.3 times
- contralateral intact femur's diaphyseal BMCPTH:BMCSaline [3]: 1.17
- A-P Periosteal Diameter [3, 10]: 1.30 mm
- Cortical Bone Density [3, 10]: 1179 mgHA/cc
- Cortical Thickness [3, 10]: 0.199 mm
- Cross-Sectional Area [3, 10]: 0.82 mm²
- M-L Periosteal Diameter [3, 10]: 1.85 mm
- Polar Moment of Inertia [3, 10]: 0.36 mm^4
- Grafted femur mode of failure after torsion testing: Early Union (number of femurs) (grafted femurs [4]; 6 weeks): 3
- Grafted femur mode of failure after torsion testing: Mature Union (number of femurs) (grafted femurs [4]; 6 weeks): 3
- Grafted femur mode of failure after torsion testing: Pre-Union (number of femurs) (grafted femurs [4]; 6 weeks): 8
- rate of twist at TUlt as fraction of control grafted specimens (grafted femurs [4]; 6 weeks): ⅓
- TR (grafted femurs [4]; [11]): 1175 N*mm^2/Rad
- Tult (grafted femurs [4]; [11]): 13.2 N*mm
- Twist at Tult (grafted femurs [4]; [11]): 0.020 Rad/mm
- Tyield (grafted femurs [4]; [11]): 10.5 N*mm
- Work to TUlt (grafted femurs [4]; [11]): 0.167 Nmm*Rad/mm
- Work to TYield (grafted femurs [4]; [11]): 0.0687 Nmm*Rad/mm
- specimens that failed in a manner not simply graft-pullout from the host (grafted femurs [4]; saline only 3, not statistically significant): Six
- Yield Torque, greater by (grafted femurs [4]; vs saline grafted femurs, 6 weeks): 72%
- Ultimate Torque, greater by (grafted femurs [4]; vs saline grafted femurs, 6 weeks, not significant): 23%
- torsional rigidity of grafted femurs (grafted femurs [4]; vs saline, 6 weeks): doubled
- osteoclastic graft resorption (grafted femurs [5]; PTH treatment for 6 weeks): did not stimulate osteoclastic graft resorption
- cartilage formation at the site of bone injury (grafted femurs [5]; persisted through 4 weeks after surgery): Cartilage formation was increased
